Experimental data taken from ChEMBL document CHEMBL4270560, “Novel curcumin analogue hybrids: Synthesis and anticancer activity” (Eur J Med Chem, 2018).
Active and inactive are the calls of the source. The rule behind the calls is not given here.

How the values were obtained:
SGC-7901 [1] = test: Induction of apoptosis in human SGC7901 cells assessed as viable cells at 1200 nM after 48 hrs in presence of NAC by Annexin V-FITC/propidium iodide staining based flow cytometric analysis (reference value: 96%); assay type: functional; settings: SGC-7901, 48 h, read-out: Activity
SGC-7901 [2] = test: Induction of mitochondrial membrane depolarization in human SGC7901 cells assessed as cells with mitochondrial membrane potential loss at 1000 nM after 48 hrs in presence of NAC by JC-1 staining based flow cytometric analysis (reference value: 1.65%); assay type: functional
SGC-7901 [3] = test: Induction of apoptosis in human SGC7901 cells assessed as late apoptotic cells at 600 nM after 48 hrs by Annexin V-FITC/propidium iodide staining based flow cytometric analysis (reference value: 1.73%); assay type: functional
SGC-7901 [4] = test: Induction of apoptosis in human SGC7901 cells assessed as viable cells at 600 nM after 48 hrs by Annexin V-FITC/propidium iodide staining based flow cytometric analysis (reference value: 95.9%); assay type: functional; settings: SGC-7901, 48 h, read-out: Activity
SGC-7901 [5] = test: Cell cycle arrest in human SGC7901 cells assessed as accumulation at G1 phase at 600 nM after 48 hrs by propidium iodide staining based flow cytometric analysis (reference value: 47.93%); assay type: functional
SGC-7901 [6] = test: Induction of apoptosis in human SGC7901 cells assessed as late apoptotic cells at 1000 nM after 48 hrs by Annexin V-FITC/propidium iodide staining based flow cytometric analysis (reference value: 1.73 to 2.85%); assay type: functional
SGC-7901 [7] = test: Cell cycle arrest in human SGC7901 cells assessed as accumulation at S phase at 800 nM after 48 hrs by propidium iodide staining based flow cytometric analysis (reference value: 33.30%); assay type: functional
U-87 MG = test: Antiproliferative activity against human U87 cells after 48 hrs by MTT assay; assay type: functional, cell-based, U-87MG ATCC
SGC-7901 [8] = test: Cell cycle arrest in human SGC7901 cells assessed as accumulation at G2 phase at 1200 nM after 48 hrs by propidium iodide staining based flow cytometric analysis (reference value: 18.77%); assay type: functional
SGC-7901 [9] = test: Induction of mitochondrial membrane depolarization in human SGC7901 cells assessed as cells with mitochondrial membrane potential loss at 1000 nM after 48 hrs by JC-1 staining based flow cytometric analysis (reference value: 9.29%); assay type: functional
SGC-7901 [10] = test: Induction of apoptosis in human SGC7901 cells assessed as late apoptotic cells at 800 nM after 48 hrs by Annexin V-FITC/propidium iodide staining based flow cytometric analysis (reference value: 1.73%); assay type: functional
SGC-7901 [11] = test: Induction of mitochondrial membrane depolarization in human SGC7901 cells assessed as cells with intact mitochondrial membrane potential at 800 nM after 48 hrs by JC-1 staining based flow cytometric analysis (reference value: 87.3%); assay type: functional
SGC-7901 [12] = test: Induction of apoptosis in human SGC7901 cells assessed as late apoptotic cells at 1200 nM after 48 hrs in presence of NAC by Annexin V-FITC/propidium iodide staining based flow cytometric analysis (reference value: 2.85%); assay type: functional
SGC-7901 [13] = test: Induction of apoptosis in human SGC7901 cells assessed as necrotic cells at 1000 nM after 48 hrs in presence of NAC by Annexin V-FITC/propidium iodide staining based flow cytometric analysis (reference value: 0.304%); assay type: functional
[14] = molecular target: T1, Thioredoxin reductase (Homo sapiens) (UniProt Q16881+Q9NNW7+Q86VQ6); test: Inhibition of TrxR in human SGC7901 cells assessed as JNK phosphorylation at 600 to 1200 nM after 48 hrs by Western blot analysis; assay type: cell-based
T1 sequence (Q16881 whole entry, looked up): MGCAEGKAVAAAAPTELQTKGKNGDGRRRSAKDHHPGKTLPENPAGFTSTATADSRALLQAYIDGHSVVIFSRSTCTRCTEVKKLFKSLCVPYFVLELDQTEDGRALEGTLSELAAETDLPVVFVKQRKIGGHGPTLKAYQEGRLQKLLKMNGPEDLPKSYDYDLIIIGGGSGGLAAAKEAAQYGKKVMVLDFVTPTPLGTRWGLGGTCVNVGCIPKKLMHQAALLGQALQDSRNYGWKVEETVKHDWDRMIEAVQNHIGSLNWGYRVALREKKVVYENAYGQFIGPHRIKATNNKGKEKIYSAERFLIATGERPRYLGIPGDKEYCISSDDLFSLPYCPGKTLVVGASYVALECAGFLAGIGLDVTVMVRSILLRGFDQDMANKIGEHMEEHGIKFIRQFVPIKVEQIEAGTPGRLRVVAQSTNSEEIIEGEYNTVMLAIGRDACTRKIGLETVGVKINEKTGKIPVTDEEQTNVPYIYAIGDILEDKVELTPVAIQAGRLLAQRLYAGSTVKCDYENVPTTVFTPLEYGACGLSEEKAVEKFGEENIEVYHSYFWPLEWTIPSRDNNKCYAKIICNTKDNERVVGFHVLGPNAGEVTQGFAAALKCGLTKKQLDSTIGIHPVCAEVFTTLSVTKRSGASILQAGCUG
T1 sequence (Q86VQ6 whole entry, looked up): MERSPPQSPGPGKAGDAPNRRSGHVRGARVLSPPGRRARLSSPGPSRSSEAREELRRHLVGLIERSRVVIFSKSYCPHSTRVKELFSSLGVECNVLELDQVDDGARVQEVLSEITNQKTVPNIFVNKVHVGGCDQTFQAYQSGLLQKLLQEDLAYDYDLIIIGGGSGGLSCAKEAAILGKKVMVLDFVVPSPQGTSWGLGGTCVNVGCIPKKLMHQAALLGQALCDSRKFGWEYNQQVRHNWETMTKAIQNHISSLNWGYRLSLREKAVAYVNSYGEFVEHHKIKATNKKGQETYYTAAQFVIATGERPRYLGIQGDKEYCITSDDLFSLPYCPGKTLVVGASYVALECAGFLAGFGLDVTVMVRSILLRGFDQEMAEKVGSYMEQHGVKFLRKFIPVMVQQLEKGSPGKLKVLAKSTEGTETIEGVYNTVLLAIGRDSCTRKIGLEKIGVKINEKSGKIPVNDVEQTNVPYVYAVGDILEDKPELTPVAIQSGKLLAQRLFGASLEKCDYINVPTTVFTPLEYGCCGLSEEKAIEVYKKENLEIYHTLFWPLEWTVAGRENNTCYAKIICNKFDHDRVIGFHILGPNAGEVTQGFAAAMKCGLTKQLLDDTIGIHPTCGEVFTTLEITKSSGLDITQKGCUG
T1 sequence (Q9NNW7 whole entry, looked up): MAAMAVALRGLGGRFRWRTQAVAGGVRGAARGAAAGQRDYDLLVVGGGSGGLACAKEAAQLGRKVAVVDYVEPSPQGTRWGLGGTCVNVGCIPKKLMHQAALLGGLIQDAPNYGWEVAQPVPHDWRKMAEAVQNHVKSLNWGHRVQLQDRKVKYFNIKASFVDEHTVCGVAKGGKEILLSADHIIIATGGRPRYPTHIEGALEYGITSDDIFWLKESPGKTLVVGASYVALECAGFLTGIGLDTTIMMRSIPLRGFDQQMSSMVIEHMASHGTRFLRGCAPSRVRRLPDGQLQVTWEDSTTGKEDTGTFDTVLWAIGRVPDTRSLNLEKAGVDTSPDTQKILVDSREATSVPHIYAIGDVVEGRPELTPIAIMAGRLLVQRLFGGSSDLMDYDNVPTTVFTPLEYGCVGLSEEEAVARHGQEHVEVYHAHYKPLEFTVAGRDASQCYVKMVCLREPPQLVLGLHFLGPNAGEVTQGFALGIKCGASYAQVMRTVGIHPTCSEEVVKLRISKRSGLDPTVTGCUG

SGC-7901 [15] = test: Induction of apoptosis in human SGC7901 cells assessed as necrotic cells at 600 nM after 48 hrs by Annexin V-FITC/propidium iodide staining based flow cytometric analysis (reference value: 0.052%); assay type: functional
SGC-7901 [16] = test: Induction of mitochondrial membrane depolarization in human SGC7901 cells assessed as cells with intact mitochondrial membrane potential at 1200 nM after 48 hrs in presence of NAC by JC-1 staining based flow cytometric analysis (reference value: 98%); assay type: functional
[17] = molecular target: T1, Thioredoxin reductase (Homo sapiens); test: Inhibition of TrxR in human SGC7901 cells assessed as JNK phosphorylation at 1200 nM after 48 hrs in presence of NAC by Western blot analysis; assay type: cell-based
SGC-7901 [18] = test: Induction of mitochondrial membrane depolarization in human SGC7901 cells assessed as cells with intact mitochondrial membrane potential at 1000 nM after 48 hrs in presence of NAC by JC-1 staining based flow cytometric analysis (reference value: 98%); assay type: functional
SGC-7901 [19] = test: Induction of apoptosis in human SGC7901 cells assessed as early apoptotic cells at 1200 nM after 48 hrs by Annexin V-FITC/propidium iodide staining based flow cytometric analysis (reference value: 0.851 to 2.30%); assay type: functional
SGC-7901 [20] = test: Cell cycle arrest in human SGC7901 cells assessed as accumulation at S phase at 1200 nM after 48 hrs by propidium iodide staining based flow cytometric analysis (reference value: 33.30%); assay type: functional
SGC-7901 [21] = test: Induction of apoptosis in human SGC7901 cells assessed as decrease in PARP level at 600 to 1200 nM after 48 hrs by Western blot analysis; assay type: functional, cell-based
[22] = molecular target: T1, Thioredoxin reductase (Homo sapiens); test: Inhibition of TrxR in human SGC7901 cells assessed as induction of intracellular ROS generation at 800 to 1000 nM after 5 hrs in presence of NAC by DCFH-DA staining based flow cytometric analysis; assay type: cell-based
SGC-7901 [23] = test: Induction of apoptosis in human SGC7901 cells assessed as necrotic cells at 800 nM after 48 hrs by Annexin V-FITC/propidium iodide staining based flow cytometric analysis (reference value: 0.052%); assay type: functional
SGC-7901 [24] = test: Induction of apoptosis in human SGC7901 cells assessed as early apoptotic cells at 1000 nM after 48 hrs in presence of NAC by Annexin V-FITC/propidium iodide staining based flow cytometric analysis (reference value: 0.851%); assay type: functional
SGC-7901 [25] = test: Cell cycle arrest in human SGC7901 cells assessed as accumulation at G1 phase at 1000 nM after 48 hrs by propidium iodide staining based flow cytometric analysis (reference value: 47.93%); assay type: functional
SGC-7901 [26] = test: Cell cycle arrest in human SGC7901 cells assessed as accumulation at G2 phase at 800 nM after 48 hrs by propidium iodide staining based flow cytometric analysis (reference value: 18.77%); assay type: functional
SGC-7901 [27] = test: Cell cycle arrest in human SGC7901 cells assessed as accumulation at G1 phase at 800 nM after 48 hrs by propidium iodide staining based flow cytometric analysis (reference value: 47.93%); assay type: functional
SGC-7901 [28] = test: Cell cycle arrest in human SGC7901 cells assessed as accumulation at G1 phase after 48 hrs by propidium iodide staining based flow cytometric analysis; assay type: functional
SGC-7901 [29] = test: Induction of apoptosis in human SGC7901 cells assessed as viable cells at 1200 nM after 48 hrs by Annexin V-FITC/propidium iodide staining based flow cytometric analysis (reference value: 95.9 to 96%); assay type: functional; settings: SGC-7901, 48 h, read-out: Activity
SMMC-7721 = test: Antiproliferative activity against human SMMC7721 cells after 48 hrs by MTT assay; assay type: functional, cell-based; settings: SMMC-7721, 48 h
SGC-7901 [30] = test: Induction of apoptosis in human SGC7901 cells assessed as late apoptotic cells at 1200 nM after 48 hrs by Annexin V-FITC/propidium iodide staining based flow cytometric analysis (reference value: 1.73 to 2.85%); assay type: functional

COc1cc(OC)c2c(=O)c(OCCCOc3ccccc3/C=C/C(=O)/C=C/c3ccccn3)c(-c3cc(OC)c(OC)c(OC)c3)oc2c1
viability at 1.2 µM (SGC-7901 [1]): 74.1%
Activity (SGC-7901 [2]): 2.32%
Activity (SGC-7901 [3]): 6.4%
viability at 0.6 µM (SGC-7901 [4]): 87.7%
Activity (SGC-7901 [5]): 48.92%
Activity (SGC-7901 [6]): 7.92 - 24.2%
Activity (SGC-7901 [7]): 35.37%
IC50 (U-87 MG): 3.93 µM
Activity (SGC-7901 [8]): 17.95%
Activity (SGC-7901 [9]): 39.9%
Activity (SGC-7901 [10]): 8.3%
Activity (SGC-7901 [11]): 75.7%
Activity (SGC-7901 [12]): 21.2%
Activity (SGC-7901 [13]): 0.92%
inhibition [14]: Active
Activity (SGC-7901 [15]): 0.132%
Activity (SGC-7901 [16]): 97.5%
inhibition [17]: inactive
Activity (SGC-7901 [18]): 97.3%
Activity (SGC-7901 [19]): 29.8 - 55.2%
Activity (SGC-7901 [20]): 36.26%
Activity (SGC-7901 [21]): Active
inhibition [22]: inactive
Activity (SGC-7901 [23]): 0.425%
Activity (SGC-7901 [24]): 2.13%
Activity (SGC-7901 [25]): 55.28%
Activity (SGC-7901 [26]): 13.48%
Activity (SGC-7901 [27]): 51.29%
Activity (SGC-7901 [28]): Dose-dependent effect
viability at 1.2 µM (SGC-7901 [29]): 24.6 to 43.7%
IC50 (SMMC-7721): 3.18 µM
Activity (SGC-7901 [30]): 20.1 - 24.9%
